Measurements reported in patent publication US12522583B2, “Benzimidazole derivatives and aza-benzimidazole derivatives as Janus kinase 2 inhibitors and uses thereof” (Dana-Farber Cancer Institute, Inc., priority 2018, dated 2026).

Tests used:
Assay in all cases: KINOMEscan
Type in all cases: binding
Conditions in all cases: read-out: percent control
MYLK2 = MYLK2 (Homo sapiens (Human), UniProt Q9H1R3)
Source text: (§1) Example 2. In Vitro Kinase Selectivity Profiling of the Compounds of the Present Disclosure

[1] = molecular target: EGFR(L747-S752del, P753S) (Homo sapiens (Human), UniProt P00533, DEL747-752/P753S)
Source text: as §1

ASK2 = ASK2 (Homo sapiens (Human), UniProt O95382)
Source text: as §1

RAF1 = RAF1 (Homo sapiens (Human), UniProt P04049)
Source text: as §1

ALK(C1156Y) = ALK(C1156Y) (Homo sapiens (Human), UniProt Q9UM73, C1156Y)
Source text: as §1

CSNK1G1 = CSNK1G1 (Homo sapiens (Human), UniProt Q9HCP0)
Source text: as §1

BRSK1 = BRSK1 (Homo sapiens (Human), UniProt Q8TDC3)
Source text: as §1

MLK1 = MLK1 (Homo sapiens (Human), UniProt P80192)
Source text: as §1

MAP3K2 = MAP3K2 (Homo sapiens (Human), UniProt Q9Y2U5)
Source text: as §1

PIK3CG = PIK3CG (Homo sapiens (Human), UniProt P48736)
Source text: as §1

EGFR(G719S) = EGFR(G719S) (Homo sapiens (Human), UniProt P00533, G719S)
Source text: as §1

PIK3CA(I800L) = PIK3CA(I800L) (Homo sapiens (Human), UniProt P42336, I800L)
Source text: as §1

PIK4CB = PIK4CB (Homo sapiens (Human), UniProt Q9UBF8)
Source text: as §1

PAK3 = PAK3 (Homo sapiens (Human), UniProt O75914)
Source text: as §1

[2] = molecular target: RPS6KA5(Kin.Dom.1-terminal) (Homo sapiens (Human), UniProt O75582)
Source text: as §1

MYLK4 = MYLK4 (Homo sapiens (Human), UniProt Q86YV6)
Source text: as §1

PAK7 = PAK7 (Homo sapiens (Human), UniProt Q9P286)
Source text: as §1

SIK2 = SIK2 (Homo sapiens (Human), UniProt Q9H0K1)
Source text: as §1

ROCK2 = ROCK2 (Homo sapiens (Human), UniProt O75116)
Source text: as §1

AURKC = AURKC (Homo sapiens (Human), UniProt Q9UQB9)
Source text: as §1

NEK3 = NEK3 (Homo sapiens (Human), UniProt P51956)
Source text: as §1

PRKCI = PRKCI (Homo sapiens (Human), UniProt P41743)
Source text: as §1

[3] = molecular target: ABL1(F317I)-nonphosphorylated (Homo sapiens (Human), UniProt P00519, F317I)
Source text: as §1

HCK = HCK (Homo sapiens (Human), UniProt P08631)
Source text: as §1

PRKCE = PRKCE (Homo sapiens (Human), UniProt Q02156)
Source text: as §1

SgK110 = SgK110 (Homo sapiens (Human), UniProt P0C264)
Source text: as §1

DDR1 = DDR1 (Homo sapiens (Human), UniProt Q08345)
Source text: as §1

JNK2 = JNK2 (Homo sapiens (Human), UniProt P45984)
Source text: as §1

CDK8 = CDK8 (Homo sapiens (Human), UniProt P49336)
Source text: as §1

STK33 = STK33 (Homo sapiens (Human), UniProt Q9BYT3)
Source text: as §1

AKT2 = AKT2 (Homo sapiens (Human), UniProt P31751)
Source text: as §1

AAK1 = AAK1 (Homo sapiens (Human), UniProt Q2M2I8)
Source text: as §1

CSF1R = CSF1R (Homo sapiens (Human), UniProt P07333)
Source text: as §1

PIK3C2G = PIK3C2G (Homo sapiens (Human), UniProt O75747)
Source text: as §1

CLK4 = CLK4 (Homo sapiens (Human), UniProt Q9HAZ1)
Source text: as §1

CAMK2G = CAMK2G (Homo sapiens (Human), UniProt Q13555)
Source text: as §1

LYN = LYN (Homo sapiens (Human), UniProt P07948)
Source text: as §1

PIK3CA(E545A) = PIK3CA(E545A) (Homo sapiens (Human), UniProt P42336, E545A)
Source text: as §1

BRAF = BRAF (Homo sapiens (Human), UniProt P15056)
Source text: as §1

CHEK2 = CHEK2 (Homo sapiens (Human), UniProt O96017)
Source text: as §1

Sequence of PIK3CA(I800L) (P42336 whole entry I800L): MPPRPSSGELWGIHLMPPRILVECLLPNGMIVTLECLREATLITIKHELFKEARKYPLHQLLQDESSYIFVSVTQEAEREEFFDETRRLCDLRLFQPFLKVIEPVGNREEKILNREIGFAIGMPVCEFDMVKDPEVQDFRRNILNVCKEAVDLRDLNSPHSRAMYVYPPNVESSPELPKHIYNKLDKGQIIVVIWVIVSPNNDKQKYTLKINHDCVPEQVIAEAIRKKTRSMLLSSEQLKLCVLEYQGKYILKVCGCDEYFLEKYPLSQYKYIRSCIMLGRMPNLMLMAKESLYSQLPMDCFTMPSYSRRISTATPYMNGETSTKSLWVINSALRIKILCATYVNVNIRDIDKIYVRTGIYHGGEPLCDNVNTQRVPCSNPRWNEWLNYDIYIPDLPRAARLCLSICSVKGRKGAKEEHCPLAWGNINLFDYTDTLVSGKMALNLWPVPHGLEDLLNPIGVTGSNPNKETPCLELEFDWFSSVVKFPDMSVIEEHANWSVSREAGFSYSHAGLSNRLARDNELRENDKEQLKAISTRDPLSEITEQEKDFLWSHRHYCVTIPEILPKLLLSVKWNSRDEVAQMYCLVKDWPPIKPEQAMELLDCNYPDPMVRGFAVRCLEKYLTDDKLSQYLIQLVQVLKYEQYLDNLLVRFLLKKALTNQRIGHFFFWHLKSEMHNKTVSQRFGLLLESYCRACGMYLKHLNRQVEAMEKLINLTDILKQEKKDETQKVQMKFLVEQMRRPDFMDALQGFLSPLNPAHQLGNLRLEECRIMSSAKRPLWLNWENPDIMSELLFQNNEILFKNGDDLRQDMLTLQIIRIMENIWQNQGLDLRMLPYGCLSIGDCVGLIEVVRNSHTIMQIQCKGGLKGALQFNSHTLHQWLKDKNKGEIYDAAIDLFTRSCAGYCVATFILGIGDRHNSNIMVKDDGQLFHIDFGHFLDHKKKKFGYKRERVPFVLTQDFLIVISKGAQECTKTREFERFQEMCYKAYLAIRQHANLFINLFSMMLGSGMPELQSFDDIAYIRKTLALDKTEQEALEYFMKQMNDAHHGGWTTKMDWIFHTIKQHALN
Sequence of HCK (P08631 whole entry): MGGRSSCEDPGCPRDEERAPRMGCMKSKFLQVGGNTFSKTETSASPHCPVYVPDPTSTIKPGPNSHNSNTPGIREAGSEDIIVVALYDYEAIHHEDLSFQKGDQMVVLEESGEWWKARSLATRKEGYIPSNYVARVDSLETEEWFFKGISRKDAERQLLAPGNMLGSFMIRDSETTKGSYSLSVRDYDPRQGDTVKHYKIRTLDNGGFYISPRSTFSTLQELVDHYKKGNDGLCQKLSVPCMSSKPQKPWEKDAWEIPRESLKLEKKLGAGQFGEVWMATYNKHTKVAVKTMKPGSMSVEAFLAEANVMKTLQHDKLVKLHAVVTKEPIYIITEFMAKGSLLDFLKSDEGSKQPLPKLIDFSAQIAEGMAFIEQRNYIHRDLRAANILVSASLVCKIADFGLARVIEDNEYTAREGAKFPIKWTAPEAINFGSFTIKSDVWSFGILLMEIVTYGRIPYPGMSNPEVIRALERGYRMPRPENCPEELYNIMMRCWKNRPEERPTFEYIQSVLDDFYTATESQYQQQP
Sequence of CLK4 (Q9HAZ1 whole entry): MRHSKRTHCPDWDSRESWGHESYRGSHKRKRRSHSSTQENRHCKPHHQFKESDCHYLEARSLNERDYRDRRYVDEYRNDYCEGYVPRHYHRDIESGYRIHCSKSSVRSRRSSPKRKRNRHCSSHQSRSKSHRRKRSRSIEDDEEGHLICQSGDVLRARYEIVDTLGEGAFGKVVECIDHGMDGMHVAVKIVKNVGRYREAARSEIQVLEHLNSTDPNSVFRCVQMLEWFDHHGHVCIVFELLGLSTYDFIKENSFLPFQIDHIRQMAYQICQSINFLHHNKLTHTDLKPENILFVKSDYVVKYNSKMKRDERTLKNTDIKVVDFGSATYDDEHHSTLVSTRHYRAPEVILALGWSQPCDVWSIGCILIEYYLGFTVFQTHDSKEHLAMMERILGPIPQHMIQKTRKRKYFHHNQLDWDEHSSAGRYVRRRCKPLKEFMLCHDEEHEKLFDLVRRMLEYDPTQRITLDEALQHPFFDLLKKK
Sequence of PIK3C2G (O75747 whole entry): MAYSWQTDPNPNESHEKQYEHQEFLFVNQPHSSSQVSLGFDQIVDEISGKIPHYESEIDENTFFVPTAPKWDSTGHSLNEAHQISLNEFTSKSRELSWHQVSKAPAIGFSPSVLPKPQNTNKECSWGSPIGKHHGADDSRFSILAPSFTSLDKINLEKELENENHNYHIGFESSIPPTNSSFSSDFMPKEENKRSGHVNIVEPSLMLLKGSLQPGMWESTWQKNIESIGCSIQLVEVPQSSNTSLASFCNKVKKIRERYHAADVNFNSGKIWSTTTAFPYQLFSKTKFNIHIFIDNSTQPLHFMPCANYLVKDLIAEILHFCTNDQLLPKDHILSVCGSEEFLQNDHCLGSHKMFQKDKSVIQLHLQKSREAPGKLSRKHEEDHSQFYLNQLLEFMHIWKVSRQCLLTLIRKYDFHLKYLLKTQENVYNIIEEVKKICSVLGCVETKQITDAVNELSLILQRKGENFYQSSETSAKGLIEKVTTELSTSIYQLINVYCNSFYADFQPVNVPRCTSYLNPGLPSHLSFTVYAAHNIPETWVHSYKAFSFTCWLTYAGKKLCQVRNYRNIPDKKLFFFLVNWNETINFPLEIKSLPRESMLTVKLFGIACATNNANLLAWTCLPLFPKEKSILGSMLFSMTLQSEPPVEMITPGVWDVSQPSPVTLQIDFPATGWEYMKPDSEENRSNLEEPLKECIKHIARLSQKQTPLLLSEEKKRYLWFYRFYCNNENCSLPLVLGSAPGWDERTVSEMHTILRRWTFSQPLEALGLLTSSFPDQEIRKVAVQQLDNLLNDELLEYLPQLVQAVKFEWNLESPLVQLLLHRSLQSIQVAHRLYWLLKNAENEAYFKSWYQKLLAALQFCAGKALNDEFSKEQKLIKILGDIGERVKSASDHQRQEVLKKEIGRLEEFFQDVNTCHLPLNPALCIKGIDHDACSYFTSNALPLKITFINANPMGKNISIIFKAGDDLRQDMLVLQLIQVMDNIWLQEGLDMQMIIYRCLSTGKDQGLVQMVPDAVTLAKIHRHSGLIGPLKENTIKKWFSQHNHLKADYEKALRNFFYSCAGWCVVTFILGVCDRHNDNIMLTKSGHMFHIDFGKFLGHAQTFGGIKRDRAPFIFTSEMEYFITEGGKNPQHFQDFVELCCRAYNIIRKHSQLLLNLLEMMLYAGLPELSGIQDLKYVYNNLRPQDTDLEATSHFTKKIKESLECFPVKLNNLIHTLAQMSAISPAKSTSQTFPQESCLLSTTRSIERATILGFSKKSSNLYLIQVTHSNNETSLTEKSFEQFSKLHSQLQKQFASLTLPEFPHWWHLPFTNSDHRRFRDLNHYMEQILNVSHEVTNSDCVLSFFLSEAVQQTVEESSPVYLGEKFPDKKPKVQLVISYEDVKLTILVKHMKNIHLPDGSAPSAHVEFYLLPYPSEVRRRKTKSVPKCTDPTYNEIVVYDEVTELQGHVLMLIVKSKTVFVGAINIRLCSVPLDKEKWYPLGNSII
Sequence of NEK3 (P51956 whole entry): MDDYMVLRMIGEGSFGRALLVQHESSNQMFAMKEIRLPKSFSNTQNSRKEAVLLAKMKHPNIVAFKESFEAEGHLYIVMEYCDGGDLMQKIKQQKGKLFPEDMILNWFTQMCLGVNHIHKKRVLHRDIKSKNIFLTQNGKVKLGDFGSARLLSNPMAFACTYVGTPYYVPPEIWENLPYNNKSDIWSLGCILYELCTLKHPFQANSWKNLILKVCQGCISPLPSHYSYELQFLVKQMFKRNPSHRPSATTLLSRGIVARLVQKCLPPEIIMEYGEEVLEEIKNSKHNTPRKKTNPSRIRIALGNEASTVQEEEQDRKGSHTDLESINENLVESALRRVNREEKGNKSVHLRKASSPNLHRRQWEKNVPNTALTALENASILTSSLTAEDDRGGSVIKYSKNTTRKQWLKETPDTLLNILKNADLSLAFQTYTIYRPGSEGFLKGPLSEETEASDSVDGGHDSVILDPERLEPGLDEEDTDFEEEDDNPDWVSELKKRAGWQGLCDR
Sequence of PRKCI (P41743 whole entry): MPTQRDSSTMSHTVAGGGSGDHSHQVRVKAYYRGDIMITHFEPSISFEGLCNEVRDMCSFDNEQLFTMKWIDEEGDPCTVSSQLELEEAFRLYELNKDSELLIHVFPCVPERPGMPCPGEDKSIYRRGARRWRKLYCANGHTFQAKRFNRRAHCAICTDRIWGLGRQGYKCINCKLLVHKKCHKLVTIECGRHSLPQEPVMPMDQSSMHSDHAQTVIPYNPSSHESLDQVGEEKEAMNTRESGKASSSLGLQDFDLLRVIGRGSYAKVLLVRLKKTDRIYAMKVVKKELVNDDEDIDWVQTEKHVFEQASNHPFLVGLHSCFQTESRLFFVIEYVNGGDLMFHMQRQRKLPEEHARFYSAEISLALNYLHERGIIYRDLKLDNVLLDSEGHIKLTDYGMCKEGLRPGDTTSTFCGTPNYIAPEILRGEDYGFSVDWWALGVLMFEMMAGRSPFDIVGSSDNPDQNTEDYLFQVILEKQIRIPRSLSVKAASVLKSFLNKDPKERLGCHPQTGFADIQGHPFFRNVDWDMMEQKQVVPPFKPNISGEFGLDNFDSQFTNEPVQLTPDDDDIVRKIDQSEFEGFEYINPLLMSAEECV
Sequence of SgK110 (P0C264 whole entry): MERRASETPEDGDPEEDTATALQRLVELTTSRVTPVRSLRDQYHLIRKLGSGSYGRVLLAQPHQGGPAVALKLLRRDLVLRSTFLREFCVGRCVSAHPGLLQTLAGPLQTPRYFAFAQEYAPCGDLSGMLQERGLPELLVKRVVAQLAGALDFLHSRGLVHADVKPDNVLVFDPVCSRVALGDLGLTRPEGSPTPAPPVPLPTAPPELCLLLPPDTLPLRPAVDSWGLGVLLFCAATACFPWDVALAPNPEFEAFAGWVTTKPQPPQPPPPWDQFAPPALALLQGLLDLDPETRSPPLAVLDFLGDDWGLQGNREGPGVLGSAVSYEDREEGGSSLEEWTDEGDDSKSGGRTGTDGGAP
Sequence of PIK3CA(E545A) (P42336 whole entry E545A): as the sequence (P42336 whole entry I800L) above, with E545A, L800I counted along it

| SMILES | remaining binding at 1 µM (MYLK2) | remaining binding at 1 µM [1] | remaining binding at 1 µM (ASK2) | remaining binding at 1 µM (RAF1) | remaining binding at 1 µM (ALK(C1156Y)) | remaining binding at 1 µM (CSNK1G1) | remaining binding at 1 µM (BRSK1) | remaining binding at 1 µM (MLK1) | remaining binding at 1 µM (MAP3K2) | remaining binding at 1 µM (PIK3CG) | remaining binding at 1 µM (EGFR(G719S)) | remaining binding at 1 µM (PIK3CA(I800L)) | remaining binding at 1 µM (PIK4CB) | remaining binding at 1 µM (PAK3) | remaining binding at 1 µM [2] | remaining binding at 1 µM (MYLK4) | remaining binding at 1 µM (PAK7) | remaining binding at 1 µM (SIK2) | remaining binding at 1 µM (ROCK2) | remaining binding at 1 µM (AURKC) | further results |
| --- | --- | --- | --- | --- | --- | --- | --- | --- | --- | --- | --- | --- | --- | --- | --- | --- | --- | --- | --- | --- | --- |
| CCN1CCN(Cc2ccc(Nc3nc4ccc(Oc5ccnc(NC(C)=O)c5)cc4n3C)cc2C(F)(F)F)CC1 [Compound I-2] | 100% | 80% | 97% | 14% | 96% | 100% | 100% | 100% | 21% | 100% | 96% | 75% | 99% | 54% | 96% | 100% | 86% | 100% | 100% | 19% | remaining binding at 1 µM (NEK3): 77%; remaining binding at 1 µM (PRKCI): 95%; remaining binding at 1 µM [3]: 37%; remaining binding at 1 µM (HCK): 89%; remaining binding at 1 µM (PRKCE): 100%; remaining binding at 1 µM (SgK110): 86%; remaining binding at 1 µM (DDR1): 0.05%; remaining binding at 1 µM (JNK2): 85%; remaining binding at 1 µM (CDK8): 17%; remaining binding at 1 µM (STK33): 76%; remaining binding at 1 µM (AKT2): 100%; remaining binding at 1 µM (AAK1): 100%; remaining binding at 1 µM (CSF1R): 0.1%; remaining binding at 1 µM (PIK3C2G): 80%; remaining binding at 1 µM (CLK4): 100%; remaining binding at 1 µM (CAMK2G): 100%; remaining binding at 1 µM (LYN): 44%; remaining binding at 1 µM (PIK3CA(E545A)): 100%; remaining binding at 1 µM (BRAF): 3.9%; remaining binding at 1 µM (CHEK2): 96% |
| CCN1CCN(Cc2ccc(Nc3nc4ccc(Oc5ccnc(NC(C)=O)c5)c(C)c4n3C)cc2C(F)(F)F)CC1 [Compound I-6, N-(4-(2-(4-((4-ethylpiperazin-1-yl)methyl)-3-(trifluoromethyl)phenylamino)-1,7-dimethyl-1H-benzo[d]imidazol-6-yloxy)pyridin-2-yl)acetamide] | 92% | 94% | 89% | 16% | 92% | 100% | 100% | 100% | 0.6% | 95% | 100% | 98% | 73% | 77% | 74% | 96% | 16% | 97% | 90% | 70% | remaining binding at 1 µM (NEK3): 92%; remaining binding at 1 µM (PRKCI): 71%; remaining binding at 1 µM [3]: 7.4%; remaining binding at 1 µM (HCK): 34%; remaining binding at 1 µM (PRKCE): 92%; remaining binding at 1 µM (SgK110): 100%; remaining binding at 1 µM (DDR1): 0%; remaining binding at 1 µM (JNK2): 66%; remaining binding at 1 µM (CDK8): 10%; remaining binding at 1 µM (STK33): 66%; remaining binding at 1 µM (AKT2): 100%; remaining binding at 1 µM (AAK1): 96%; remaining binding at 1 µM (CSF1R): 0.35%; remaining binding at 1 µM (PIK3C2G): 86%; remaining binding at 1 µM (CLK4): 81%; remaining binding at 1 µM (CAMK2G): 100%; remaining binding at 1 µM (LYN): 12%; remaining binding at 1 µM (PIK3CA(E545A)): 100%; remaining binding at 1 µM (BRAF): 9.2%; remaining binding at 1 µM (CHEK2): 90% |
